Data: patent publication EP0738149B1 (priority 1994, dated 1995)
Where a name gives a salt, the structure may show the parent alone. Read-outs that look alike come from different tables or passages of the source.

Legend:
mice [1] = assay: Maximal electroshock (MES) model in mice, i.p.;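 also: Electroshock-induced convulsion model serving to demonstrate antiepileptic efficacy against generalized and partial seizures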; format: in vivo; details: Mus musculus, ip, Table 15
in vivo [2] = details: mouse, in vivo, ip
Protocol: (§1) Neurotoxicity of the claimed agents was also assessed in mice (i.p. administration) by the rotorod ataxia test and/or in rats (p.o. administration) by positional sense test and gait stance test. […] The term quantitating the neurotoxicity is the medial neurological toxic dose (TD50), was determined in the above tests.

mice [3] = assay: in vivo; details: mouse, in vivo, ip
Protocol: as §1

rats [4] = assay: Electrically kindled rat model of epilepsy, p.o.; format: in vivo; details: po, read-out: ED50 (prevented seizures)
Source text: The rat electrical kindling model of epilepsy has been known to show efficacy of antiepileptic agents against complex partial seizures that evolve into generalized motor seizures. In these tests, rats were electrically stimulated via corneal electrodes twice daily for approximately 5 days and then once daily for an additional 10 days. Once the seizure criteria, as described by R.J. Racine, et al., Electroenceph. Clin. Neurophysiol. 32: 281-294 (1972), were met, the test substance was administered p.o. to rats, and the rat electrically stimulated, and observed for the presence or absence of a seizure.

mice [5] = details: Mus musculus, ip
rats [6] = assay: Maximal electroshock (MES) model in rats, p.o.;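 as to all read-outs here: rat MES model gauging antiepileptic efficacy versus generalized and partial seizures after oral dosing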; format: in vivo; details: Table 15; for ED50: Rattus norvegicus, po
in vivo [7] = details: rat, in vivo, po
Protocol: as §1

rats [8] = assay: Neurotoxicity in rats (positional sense test and gait stance test), p.o.; details: rats, p.o.; Table 16
Protocol: as §1

[9] = system: mechanically dissociated neonatal rat cerebellum; assay: Reversal of NMDA induced cell death in cultures of neonatal rat cerebellum; format: cell-based; details: for SURVIVING CELL IN CULTURE: relative to control (100%); for PERCENT PROTECTION: Cell Survival minus the NMDA effect; for EFFECTIVE PROTECTION: X x 100/70
Protocol: (§2) The cerebellum was aseptically dissociated from 6 or 7-day old rat pups and placed in a 15ml sterile plastic conical tube containing 3ml of Dulbecco's modified Eagle's medium (DMEM) with a high glucose concentration ([…]) and 2mM (v/v) L-glutamine and an antibiotic antimitotic mixture. The cerebella were then dissociated after 20-25 passages through a sterile 13 gauge, 10cm long stainless steel needle attached to a 5ml syringe with an inserted 45 micrometer pore nylon sieve. The dissociated cells were centrifuged at 200g for 5 minutes. The supernatant was discarded and the cells resuspended in medium enriched with 15% (v/v) heat inactivated fetal calf serum. Cell viability was determined by the tryptan blue exclusion test.
(§3) Cells were plated at a density of 200/mm^2 on poly-L-lysine coated surfaces. Poly-L-lysine coated glass coverslips were prepared at least one hour in advance of plating by immersing sterile coverslips in sterile distilled water solution containing 15 microgram/ml poly-L-lysine, and washing in sterile water just prior to use. The plated cells were covered with enriched medium and incubated at 37°C in an atmosphere of 5% CO2 in air and 97% humidity. After three days in culture, the media was replaced with media containing the desired test compound. Each test compound was tested in duplicate. Toxic-dose response was determined for each compound.
Four groups were run in each set of experiments; • I. Control, consisting of enriched media alone, • II. N-methyl-D-aspartate (NMDA, 1mM for 3 hours) as the cytotoxic challenge, • III. Test compound plus NMDA, and • IV. Positive control, spermine(0.01 micromoles) plus NMDA.
Nerve cell survival was evaluated by phase contrast microscopy and tryptan blue staining after 24 hours.
Surviving cells in culture are measured relative to control (100%), as described above. Percent protection is the Cell Survival for the test compound minus the NMDA effect. Thus, maximal protection is 100% minus 30% NMDA effect i.e. […]. The Effective Protection was calculated as the percent of the Percent Protection (X) divided by the maximal protection value (e.g. X x 100/70).

[10] = system: mechanically dissociated neonatal rat cerebellum; assay: Enhancement of cell survival in cultures of neonatal rat cerebellum (no NMDA); format: cell-based; details: 24 hours after addition, percentage of the number of control cells on the fourth day
Protocol: as §2, with “The supernatant was discarded and the cells resuspended in medium enriched with 15% (v/v) heat inactivated fetal calf serum.” left out
as §3, with “The plated cells were covered with enriched medium and incubated at 37°C in an atmosphere of 5% CO2 in air and 97% humidity.” left out
Cell cultures were grown as described above but in the absence of NMDA and after 3 days a dose of test compound was added. Cell survival was monitored as described above.

Male mongolian gerbils = assay: Global brain ischemia in gerbils (CA1 pyramidal neurons); format: in vivo; details: 3 injections, fraction of hippocampi protected from ischemia, 14 days post-ischemia
Protocol: Each artery was clamped for 5 minutes with aneurysm clips to produce global brain ischemia. The anesthesia was discontinued upon clamping. After 5 minutes the clamps were removed and the wound closed with skin clips.
For treatment, the test compound or vehicle were injected intra-peritoneally (ip) in a volume of 50 microliters of solvent per 10g body weight. The first injection was given two minutes after clamp removal, and thereafter daily for the next 2 post-operative days (total of 3 injections).
Seven groups each of 4-8 animals were compared: • I. Control; (sham- or unoperated and saline treated), • II. Vehicle treated, unoperated (when solvent is other than saline), • III. Ischemia - untreated or saline treated), • IV. Ischemia - vehicle treated (when solvent is other than saline), • V. Ischemia - Test compound treated, one sub-group per concentration tested, • VI. Ischemia and pentobarbital (40 mg/kg) as positive control).
Analysis of neuronal damage was performed 14 days post-ischemia by counting pyramidal neurons throughout the CA1 layer of the anterior hippocampus in […] thick (paraffin) coronal brain sections stained with hematoxylin and erosin.
Percent Protection values represent the fraction of hippocampi protected from ischemia in a group of animals treated with the stated dose of compound.

rats [11] = details: Rattus norvegicus, po, read-out: RATS scMet ED50
male ICR albino mice = assay: Hypobaric hypoxia survival time in mice; format: in vivo
Protocol: Dessicator B was disconnected and allowed to equilibrate with room air whilst dessicator A was evacuated to a pressure of 100mmHg. […] The survival time from the moment of induction of hypoxia to the time of cessation of respiration was recorded for each mouse for a maximum of 15 minutes after which time room air was reintroduced to dessicator B. Survivors were monitored for signs of lethargy or vitality.
Effect of drug treatment was assessed as the percent of the survival time of the drug treated group with respect to the saline injected or vehicle injected control group. Control groups were run twice, before and after each experimental group and consisted of 12-16 mice in groups of 4 mice. Each experimental group always consisted of 4 mice to ensure a constant residual volume of oxygen in all tests. The effect of each dose of test drug was determined in duplicate i.e. two groups of 4 mice.
All drugs were administered intra-peritoneally at the dose indicated one hour prior to exposure to hypoxia.

[12] = read-out: MICE scMet ED50, mice, i.p., Table 16
[13] = 0.005 µM + NMDA 1mM for 3 hours
[14] = 0.010 µM + NMDA 1mM for 3 hours
[15] = 0.100 µM + NMDA 1mM for 3 hours
[16] = rats, p.o., read-out: RATS MES 50
[17] = 1.000 µM + NMDA 1mM for 3 hours

Row | Compound | ED50 (mice [1]) [mg/kg] | TD50 (in vivo [2]; MICE TD50) [mg/kg] | MICE TD50 (mice [3]) [mg/kg] | ED50 (mice [5]; [12]) [mg/kg] | TD50 (in vivo [7]) [mg/kg] | RATS TD50 (rats [8]) [mg/kg] | SURVIVING CELL IN CULTURE [9, 13] [%] | PERCENT PROTECTION ([9]; 0.005 µM + NMDA) [%] | EFFECTIVE PROTECTION ([9]; 0.005 µM + NMDA) [%] | SURVIVING CELL IN CULTURE [9, 14] [%] | PERCENT PROTECTION ([9]; 0.010 µM + NMDA) [%] | EFFECTIVE PROTECTION ([9]; 0.010 µM + NMDA) [%] | PERCENT PROTECTION (Male mongolian gerbils; 0.1 mg/kg ip) [%] | PERCENT PROTECTION (Male mongolian gerbils; 1.0 mg/kg ip) [%] | PERCENT PROTECTION (Male mongolian gerbils; 10.0 mg/kg ip) [%] | ED50 (rats [11]) [mg/kg] | ED50 (rats [6]; [16]) [mg/kg] | other results
1 | CC(=O)NC1CCc2ccccc21 (racemic) [Example 17, (rac)-N-Acetyl-1-aminoindan] | 33 | 90 | 90 | 71.5 |  |  |  |  |  |  |  |  |  |  |  |  |  | ED50 (rats [4]): < 75 mg/kg
2 | NC(=O)CN[C@H]1CCc2ccccc21 [Example 2, (S)-N-(2-Acetamido)-1-aminoindan.HCl] | 39 |  |  | > 150 | > 500 | >500 | 56 | 26 | 37 | 51 | 21 | 30 | 0 | 50.0 | 37.5 | > 250 |  | RATS MES 50 (rats [6]; rats, p.o.): 21 mg/kg; TD50 (in vivo [2]; MICE TD50, mice, Table 15): 137 mg/kg; TD50 (in vivo [2]; MICE TD50, mice, Table 16): 137 mg/kg; SURVIVING CELL IN CULTURE [9, 15]: 33%; PERCENT PROTECTION ([9]; 0.100 µM + NMDA): 3%; EFFECTIVE PROTECTION ([9]; 0.100 µM + NMDA): 4%; % ENHANCED SURVIVAL ([10]; 0.005 µM): 140%; % ENHANCED SURVIVAL ([10]; 0.01 µM): 125%
3 | CC(=O)N[C@H]1CCc2ccccc21 [Example 19, (S)-N-Acetyl-1-aminoindan] | 40 | 61 | 61 | 86 | > 500 | >500 | 30 | 0 | 0 | 42 | 12 | 17 | 25.0 | 0 | 37.5 | > 250 | 24 | SURVIVING CELL IN CULTURE ([9]; 0.001 µM + NMDA 1mM for 3 hours): 80%; PERCENT PROTECTION ([9]; 0.001 µM + NMDA): 50%; EFFECTIVE PROTECTION ([9]; 0.001 µM + NMDA): 71%; SURVIVING CELL IN CULTURE [9, 17]: 15%; PERCENT PROTECTION ([9]; 1.000 µM + NMDA): -15%; % ENHANCED SURVIVAL ([10]; 0.005 µM): 120%; ED50 (rats [4]): > 50 mg/kg
4 | COc1ccc2c(c1OC)CC[C@H]2NC(C)=O [Example 21, (R)-4,5-Dimethoxy-N-acetyl-1-aminoindan] | 40 | 137 | 137 | 150 | > 500 | >500 |  |  |  |  |  |  |  |  |  | > 250 | 21 | 
5 | CC(=O)N[C@@H]1CCc2ccc(F)cc21 [Example 23, (R)-6-Fluoro-N-acetyl-1-aminoindan] | 65 | 155 | 155 | 155 | > 500 | >500 |  |  |  |  |  |  |  |  |  | > 250 | 25 | 
6 | C#CCN[C@H]1CCc2ccccc21.Cl [G, (S)-N-propargyl-1-aminoindan HCl salt] | 57 |  |  |  |  |  |  |  |  |  |  |  |  |  |  | > 250 |  | ED50 (rats [6]; read-out: RATS MES 50, rats, p.o.): 57 mg/kg; ED50 (mice [5]; read-out: MICE scMet ED50): > 250 mg/kg
7 | N[C@@H]1CCc2ccc(F)cc21 [J, (R)-6-fluoro-1-aminoindan] | 65 | 78 | 78 |  | > 50 | >50 | 108 | 78 | 111 | 79 | 49 | 70 | 27.5 | 25.0 | 25.0 | > 100 | < 50 | PROTECTION % OF RESPECTIVE CONTROL (male ICR albino mice; 50 mg/kg ip one hour prior to hypoxia): 305±185 % OF RESPECTIVE CONTROL; PROTECTION % OF RESPECTIVE CONTROL (male ICR albino mice; 100 mg/kg ip one hour prior to hypoxia): 241±56 % OF RESPECTIVE CONTROL; SURVIVING CELL IN CULTURE [9, 15]: 62%; PERCENT PROTECTION ([9]; 0.100 µM + NMDA): 32%; EFFECTIVE PROTECTION ([9]; 0.100 µM + NMDA): 46%; SURVIVING CELL IN CULTURE [9, 17]: 53%; PERCENT PROTECTION ([9]; 1.000 µM + NMDA): 23%; EFFECTIVE PROTECTION ([9]; 1.000 µM + NMDA): 33%; SURVIVING CELL IN CULTURE ([9]; 5.000 µM + NMDA 1mM for 3 hours): 60%; PERCENT PROTECTION ([9]; 5.000 µM + NMDA): 30%; EFFECTIVE PROTECTION ([9]; 5.000 µM + NMDA): 43%
